Five compounds from US20230052893A1, “A SYNERGISTIC BACTERICIDE AND BACTERIOSTATIC ORGANIC SANITIZING/DISINFECTANT/CLEANING FORMULATION” (UNIVERSIDAD DE CONCEPCIÓN, priority 2020, published 2023) can be followed below.

One experiment relates to pathogen disease. Nature of the experiment: Disease incidence in inoculated fruits, 21-days aged fruits (fruit not stated). The source says: Fruits having similar, size, form and color and having no visual damage by fungi were selected. To perform assays a 1-2 mm deep wound was made on the selected fruit by a needle and 10^5 UFC/ml B. cinerea and Penicillium spp. (to different samples, independent test) were inoculated through the same wound under sterility conditions, fruits was not disinfected prior to the inoculation procedures. Assays was made by triplicate on 6 units submitted to visual inspection during the treatment, which were equidistantly located therebetween in Petri plates of 100×15 mm and exposed to a disinfectant treatment (Different proportions and concentrations) spraying on the fruit 0.2 ml of the different synergistic proportion of the formulation, finally an incubation at 4° C. was allowed.
Four acetate/propionate mixtures (proportions) were tested, 17.2:1, 6.86:1, 1.72:1 and 0.043:1; for each of them two or three concentrations were tested. Treatments: Treatment A/Treatment 1: 3.38% w/v mixture acetate/propionate buffers. Treatment B/Treatment 2: 11.25% w/v mixture acetate/propionate buffers. Treatment C: 25% w/v mixture acetate/propionate buffers. Treatment D/Negative Control: Fruits with wound immersed in water. […]
Assays were evaluated to days 0 (control), 7, 14 and 21, a counting of fruits showing pathogen signs was made to determined incidence. […]

For a further experiment, the system named is Pseudomonas syringae. Description: MIC and MBC against agronomical pest. The experiment is classed as cell-based. The settings on record: buffer alone; 24 hours. As for the experimental part: (§1) In summary 100 μl of inoculum suspension was added into 96 wells in plates, using the following concentrations: 0.037-14.8% w/v acetate buffer and 0.043-17.31% w/v propionate buffer; 100 μl water (fungus) or culture medium (bacteria) and 10 μl of inoculum suspension at a final concentration of 1×10^5 UFC/ml. An incubation of 24 hours at ±25° C. was performed, assays was made by triplicate. The antimicrobial effect was evaluated as follows: B. cinerea, a germinated conidia counting was made; and P. syringae, a minimal inhibitory concentration (MIC) was firstly made through presence/absence of turbidity, and from the concentrations in absence of turbidity 100 μl was taken to be transferred to a culture medium without the antimicrobial formulation and an incubation of 24 hours at room temperature was carried out to assay the minimal bactericide concentration (MBC).

The next experiment deals with Botrytis cinerea. Description: Inhibition of conidia germination. The experiment is classed as cell-based. The settings on record: 24 hours. As for the experimental part:
as §1

The subject of experiment [1] is E. coli ATCC 25932, L. monocytogenes ATCC 19115; Staphylococcus aureus ATCC 6538P, Salmonella enterica ATCC 13076. Nature of the experiment: MIC-MBC in planktonic cells, the four pathogens together. The experiment is classed as cell-based. The settings on record: buffer used alone; range over the four pathogens; 18-20 hrs exposure. As for the experimental part:
The efficacy of the formulation was evaluated through minimal inhibitory concentration (MIC) and minimal bactericide concentration (MBC) against pathogens E. coli ATCC 25932, L. monocytogenes ATCC 19115; Staphylococcus aureus ATCC 6538P, Salmonella enterica ATCC 13076. […] The range of disinfectant concentrations was 0.037-5.17% w/v to acetate buffer and 0.043-6.06% w/v to propionate buffer. These concentrations are obtained from a stock solution which is diluted with filtered water.

Experiment [2] relates to Salmonella enterica ATCC 13076 biofilm. Description: CDC biofilm reactor, biofilm on stainless steel coupons. The format is cell-based. The settings on record: 250 ppm, 30 minutes contact. As for the experimental part: (§2) Tests on bacterial biofilms were also made to the pathogen strains, which were performed as follows: stainless steel coupons (type 316) were washed, installed on a support within a glass vessel and autoclaved at 121° C. by 20 minutes. To evaluate the disinfectant effect over a stablished biofilm to each separate bacteria, 3 ml of a concentration of 0.5 Mc Farland was inoculated within a vessel and then the same was incubated by 6, 12, 24 and 48 hours at 16° C. After each time of incubation supports containing coupons were removed and transferred to Falcon tubes of 50 ml containing the present synergistic disinfectant formulation at the following concentrations, DS1: 15% w/v (ratio acetate:propionate, 6.86:1) and DS2: 35% w/v (ratio acetate:propionate, 6.86:1). Peracetic acid was used (PAA) as control at concentrations of 250 ppm, the contact with the present synergistic disinfectant formulation or peracetic acid with supports containing biofilms was kept by 30 minutes. To perform a counting, an aliquot was taken, seeded into trypticase agar and incubated at 30° C. by 24 h, finally a counting of adhered cells was made. FIGS. 1 to 4 showing bacteria concentrations obtained to different times after 30 minutes of treatment using the above mentioned disinfectant formulations and peracetic acid as control to the following pathogens: L. monocytogenes ATCC 19115 (FIG. 1); E. coli ATCC 25932 (FIG. 2), Salmonella enterica ATCC 13076.L. (FIG. 3); and Staphylococcus aureus ATCC 6538P (FIG. 4).

The subject of experiment [3] is Staphylococcus aureus ATCC 6538P biofilm. The description is as above. The format is cell-based. The settings on record: 250 ppm, 30 minutes contact. The method, then: as §2
In experiment [4] the test system is E. coli ATCC 25932 biofilm. Described as above. To be noted: 250 ppm, 30 minutes contact. The experiment is classed as cell-based, Escherichia coli. The method, then: as §2, with “FIGS. 1 to 4 showing bacteria concentrations obtained to different times after 30 minutes of treatment using the above mentioned disinfectant formulations and peracetic acid as control to the following pathogens: L. monocytogenes ATCC 19115 (FIG. 1); E. coli ATCC 25932 (FIG. 2), Salmonella enterica ATCC 13076.L. (FIG. 3); and Staphylococcus aureus ATCC 6538P (FIG. 4).” left out

For experiment [5], the system named is L. monocytogenes ATCC 19115 biofilm. The experiment is described as above. The experiment is classed as cell-based, Listeria monocytogenes. The settings on record: 250 ppm, 30 minutes contact. The method, then:
as §2, with “FIGS. 1 to 4 showing bacteria concentrations obtained to different times after 30 minutes of treatment using the above mentioned disinfectant formulations and peracetic acid as control to the following pathogens: L. monocytogenes ATCC 19115 (FIG. 1); E. coli ATCC 25932 (FIG. 2), Salmonella enterica ATCC 13076.L. (FIG. 3); and Staphylococcus aureus ATCC 6538P (FIG. 4).” left out

The subject of experiment [6] is mesophyll aerobics and enterobacteria. Nature of the experiment: Disinfectant effect on non-inoculated meats, the 3 types of meats together. The settings on record: 2.5% Sodium Acetate; different meats, during test days.
Experimental: Assays to evaluate antimicrobial effect on the surface of beef, chicken meat and salmon meat was performed. […] The growth of bacteria Escherichia coli was allowed in a TSB culture medium by 24 h at 35° C.
Disinfecting effect on a total mesophyll aerobic and enterobacteria microorganism counting was evaluated to initial non inoculated (E. coli) meat. Also, a concentration of 10^1 UFC/g of E. coli was inoculated and then the disinfectant effect was evaluated on such pathogen microorganism counting.
Meat (beef, chicken and salmon) was purchased the same date in which the assay was arranged and was kept under storing conditions at 4° C. up to using the same. Prior to initiating assays pieces of 5 grams, pieces were randomly selected to each treatment, and a) pieces were independently inoculated with 0.2 ml of culture comprising the above mentioned bacteria by separate and 2 ml was applied to the treatments to be defined below or b) pieces were only chopped and 2 ml of treatment was applied:
Meat pieces (inoculated or non-inoculated) with its respective treatments was transferred to tubes of 50 mL under conditions of sterility and stored at 4° C. up to its final evaluation. Assays were made by triplicate.
Antimicrobial activity evaluation was performed to 0, 3, 8 and 12 post-treatment days. […] Colonies were counted at 24 and 48 hours, depending the medium to be used to the counting.

For the compound benzalkonium chloride, the “Time for which pathogen disease / incidence is inhibited” value in the experiment on pathogen disease is recorded as 42 days.

In the experiment with Pseudomonas syringae, acetate buffer returned an MBC of 3.69 % w/v. In addition, the “Inhibition of germination (%)” value turned out to be 0.3% with Botrytis cinerea (Acetate 2.22 % w/v, adjusted mortality media); 7.4% with Botrytis cinerea (Acetate 5.17 % w/v); 8.1% with Botrytis cinerea (Acetate 7.4 % w/v). In addition, the “Concentration needed by separate to eliminate the pathogens (MBC)” value in experiment [1] is 0.74-3.69 % w/v.

For `CC(=O)OO` [peracetic acid], the “Elimination of biofilm” value in experiment [2] (24-hours aged biofilms), in experiment [3] (24-hours aged biofilms), in experiment [4] (24-hours aged biofilms) and in experiment [5] (24-hours aged biofilms) was “fully eliminate” in each case. The “Reduction of biofilm” value in experiment [2] (biofilm after 6 and 12 hours) is recorded as “completely reduced”; in experiment [3] (biofilm after 6 and 12 hours) it was “completely reduced”; in [4] (biofilm after 6 and 12 hours), “completely reduced”; in [5] (biofilm after 6 and 12 hours) it was “completely reduced”.

With `CCC(=O)O` [Propionate, propionate buffer], the inhibition (usually the change of the read-out against control, counted positive when it falls) at 2.6 % strength in the experiment with Botrytis cinerea (Botrytis cinerea, Propionate 2.6 % w/v) is 5.6%. Also, the inhibition at 6.06 % strength with Botrytis cinerea (Botrytis cinerea, Propionate 6.06 % w/v) was found to be 18.1%. This compound also yielded an inhibition at 8.65 % strength in the experiment with Botrytis cinerea (Botrytis cinerea, Propionate 8.65 % w/v) of 21.2%. For the same compound, the “Concentration needed by separate to eliminate the pathogens (MBC)” value in experiment [1] was 0.43-3.46 % w/v.

Take `CC(=O)[O-].[Na+]` [sodium acetate, Sodium Acetate]: in experiment [6], the “Aerobic mesophilic and enterobacterial counts” value is recorded as “close to the negative control”.
